Source: patent US20240173333A1, “Treating Alagille Syndrome (ALGS)” (priority 2022, published 2024)

Legend:
[1] = tested on: patients with Alagille syndrome (ALGS); experiment: ASSERT phase 3 trial: ObsRO scratching score and pruritus response; assay type: in vivo, human; conditions: 120 μg/kg/day
Method: Odevixibat is an orally administered, potent, luminally restricted, selective IBAT inhibitor in development to treat cholestatic liver diseases. In this phase 3, double-blind, randomized, 24-week trial (ASSERT), the efficacy and safety of odevixibat versus placebo was evaluated in patients with Alagille Syndrome (ALGS). The efficacy of odevixibat in patients with ALGS was evaluated in a 24-week, randomized, double-blind, placebo-controlled trial conducted in 52 patients with a confirmed diagnosis of ALGS (NCT04674761; ASSERT). Patients were randomized 2:1 to receive odevixibat 120 μg/kg/day or placebo.
The study consisted of a screening phase and parallel-design treatment period. Two screening visits occurred: the first took place during days −56 to −21 prior to the first dose of study drug and the second occurred during days −49 to ˜14. On day 0, all eligible patients were randomized 2:1 to oral, 120 μg/kg/day odevixibat or once-daily placebo. Eligibility for randomization was determined using pruritus or scratching reports from observer reported outcome (ObsRO)/patient reported outcome (PRO) data for evaluation of itching (PRO), scratching (ObsRO), and sleep disturbance (PRO and ObsRO) in the 14 days before Study Day 1, clinical genetic confirmation of diagnosis, and the liver biochemistry evaluations from the previous screening visits. After written informed consent was obtained, an Interactive Web Response System (IWRS) was used to assign patients to treatment. The randomization codes were computer generated by Albireo or a qualified randomization vendor.
A single primary endpoint was evaluated. The primary endpoint in this study was the change from baseline in scratching to Month 6 (Weeks 21 to 24) as measured by the observer-reported outcome (ObsRO) instrument.
Itching, Scratching, and Sleep Parameters. Itching, observed scratching, and sleep disturbance were recorded twice each day via eDiary. Patients and/or caregivers were instructed to complete the eDiary every day in the morning after the patient woke and in the evening just before the patient went to sleep throughout the study. The eDiary included ObsRO and PRO items. The PRO items assessed severity of itch, aspects of sleep disturbance (morning diary only), and tiredness. The ObsRO items assessed severity of observed scratching, aspects of observed sleep disturbance (morning diary only), and signs of tiredness (evening diary only). […]
Statistical Analyses. […] After a minimum of 18 patients had completed the Week 16 visit, the pooled SD of change from baseline to Month 4 (Weeks 13-16 assessments) and available change from baseline to Month 6 (Weeks 21-24 assessments) in average monthly scratching score was calculated by an independent statistician to assess the need for sample size re-estimation. […]

[2] = tested on: patients with Alagille syndrome (ALGS); experiment: Pooled ASSERT and ASSERT-EXT: serum bile acids, autotaxin, C4; assay type: in vivo, human
Method: In the completed 24-week ASSERT study, patients with ALGS with history of significant pruritus and elevated serum BAs were randomized 2:1 to once-daily odevixibat 120 μg/kg or placebo, respectively. Patients who completed ASSERT could enter ASSERT-EXT, an ongoing, 72-week open-label extension study in which all patients receive odevixibat 120 μg/kg/day. This pooled analysis included all odevixibat-treated patients from ASSERT and/or ASSERT-EXT and spans from patients' first dose of odevixibat to a data cut-off of Sep. 9, 2022. Assessments over up to 36 weeks of treatment included change in observer-reported scratching scores and sleep parameters, as well as levels of serum BAs, autotaxin (a proposed meditator of pruritus), and 7 alpha-hydroxy-4-cholesten-3-one (C4; a marker of bile acid synthesis). Safety evaluations included assessment of alanine aminotransferase (ALT), total bilirubin, and treatment-emergent adverse events (TEAEs).

CCCCC1(CCCC)CN(c2ccccc2)c2cc(SC)c(OCC(=O)N[C@@H](C(=O)N[C@@H](CC)C(=O)O)c3ccc(O)cc3)cc2S(=O)(=O)N1 [odevixibat, 1,1-dioxo-3,3-dibutyl-5-phenyl-7-methylthio-8-(N-{(R)-α-[N-((S)-1-carboxypropyl)carbamoyl]-4-hydroxybenzyl}carbamoylmethoxy)-2,3,4,5-tetrahydro-1,2,5-benzothiadiazepine]
LS mean change from baseline in scratching score (ObsRO) ([1]; baseline to Weeks 21-24, 34 patients): −1.69 points
improvement in pruritus (mean monthly ObsRO scratching score) observed as early as ([1]; onset of effect): 1 week
percentage of patients who were pruritus responders (≥1-point reduction in monthly scratching score from baseline) ([1]; week 12): 74%
percentage of patients who were pruritus responders (≥1-point reduction in monthly scratching score from baseline) ([1]; week 24 (weeks 21-24), n=35): 80%
mean BA level ([2]; average of weeks 20 and 24): 145 µmol/L
mean BA level ([2]; baseline, before odevixibat): 246 µmol/L
mean p-C4 levels following treatment ([2]; up to 36 weeks): approached normal levels
mean BA level ([2]; week 4): 116 µmol/L
mean BA level ([2]; week 36): 116 µmol/L
